Measurements reported in patent US20240246941A1, “SUBSTITUTED 4-(3-AMINOPROP-1-YL)AMINOQUINOLINE ANALOGS AS MODULATORS OF MELANOMA-ASSOCIATED ANTIGEN 11 UBIQUITIN LIGASE” (ST. JUDE CHILDREN'S RESEARCH HOSPITAL, INC., priority 2020, published 2024).

Target: MAGE-A11:PCF11 (Homo sapiens (Human), UniProt P43364)
Test: TR-FRET single point screening at 15 μM
Assay type: binding
Design: unit not given here
Conditions: single point TR-FRET screening at 15 μM against MAGE-A11:PCF11
Summary of the method: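 Single-point screen at 15 μM (0.25% DMSO) measuring disruption of GST-MAGEA11 (5 nM) binding to FAM-PCF11_4 peptide (200 nM) detected by Tb-anti-GST (5 nM). Buffer 50 mM Tris pH 7.5, 20 mM MgCl2, 0.1 mg/ml BSA, 1 mM DTT; 90 min at ~25 °C; 520/490 nm ratio converted to % inhibition versus controls.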

Sequence of MAGE-A11:PCF11 (P43364 218-429): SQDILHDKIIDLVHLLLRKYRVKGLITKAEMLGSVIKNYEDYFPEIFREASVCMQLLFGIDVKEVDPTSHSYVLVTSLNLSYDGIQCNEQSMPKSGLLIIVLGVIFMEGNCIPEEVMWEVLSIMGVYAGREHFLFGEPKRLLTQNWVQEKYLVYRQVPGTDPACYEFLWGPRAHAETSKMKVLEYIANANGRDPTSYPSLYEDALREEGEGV

| SMILES | TR-FRET signal |
| --- | --- |
| COC(=O)c1ccc(CNCCCNc2c3ccc(Cl)cc3nc3ccc(OC)cc23)cc1 [SJ000522957] | −133 |
| COc1ccc2nc3cc(Cl)ccc3c(NCCCNCc3ccc(Cl)cc3Cl)c2c1 [SJ000522958] | −97.83 |
| CCCN(CCCNc1c2ccc(Cl)cc2nc2ccc(OC)cc12)Cc1ccc(OC)c(F)c1 [SJ000522963] | −177.5 |
| CCCN(CCCNc1c2ccc(Cl)cc2nc2ccc(OC)cc12)Cc1cn(C)c2ccccc12 [SJ000522964] | −162.2 |
| CCCCN(CCC)CCCNc1c2ccc(Cl)cc2nc2ccc(OC)cc12 [SJ000522971] | −286.9 |
| CCCN(CCCNc1c2ccc(Cl)cc2nc2ccc(OC)cc12)Cc1ccc(CC)cc1 [SJ000522972] | −105.1 |
| CCCN(CCCNc1c2ccc(Cl)cc2nc2ccc(OC)cc12)Cc1nccn1C [SJ000522973] | −159.9 |
| CCCN(CCCNc1c2ccc(Cl)cc2nc2ccc(OC)cc12)Cc1scnc1C [SJ000522976] | −127 |
| CCCN(CCCNc1c2ccc(Cl)cc2nc2ccc(OC)cc12)Cc1c[nH]c2ccccc12 [SJ000522978] | −166.2 |
| CCCN(CCCNc1c2ccc(Cl)cc2nc2ccc(OC)cc12)Cc1cccc2c1OCO2 [SJ000522979] | −108 |
| CCCN(CCCNc1c2ccc(Cl)cc2nc2ccc(OC)cc12)Cc1cnn(C)c1 [SJ000522980] | −276.6 |
| CCCN(CCCNc1c2ccc(Cl)cc2nc2ccc(OC)cc12)CCOCc1ccccc1 [SJ000522981] | −212.4 |
| CCCN(CCCNc1c2ccc(Cl)cc2nc2ccc(OC)cc12)CCC(C)(C)C [SJ000522983] | −233.7 |
| CCCN(CCCNc1c2ccc(Cl)cc2nc2ccc(OC)cc12)Cc1cccn1C [SJ000522987] | −302.6 |
| CCCN(CCCNc1c2ccc(Cl)cc2nc2ccc(OC)cc12)Cc1nccs1 [SJ000522988] | −117.5 |
| CCCN(CCCNc1c2ccc(Cl)cc2nc2ccc(OC)cc12)Cc1ccc(C(=O)OC)cc1 [SJ000523018] | −118.6 |
| CCCN(CCCNc1c2ccc(Cl)cc2nc2ccc(OC)cc12)Cc1ccc(-c2ccccc2[N+](=O)[O-])o1 [SJ000523019] | −102.8 |
| CCCN(CCCNc1c2ccc(Cl)cc2nc2ccc(OC)cc12)Cc1ccc(-c2cccc(Cl)c2)o1 [SJ000523020] | −169.7 |
| CCCN(CCCNc1c2ccc(Cl)cc2nc2ccc(OC)cc12)Cc1ccc([N+](=O)[O-])o1 [SJ000523022] | −329.7 |
| COc1ccc2nc3cc(Cl)ccc3c(NCCCNCc3ccncc3)c2c1 [SJ000523023] | −127.6 |
| COc1ccc2nc3cc(Cl)ccc3c(NCCCNCc3ccccn3)c2c1 [SJ000523024] | −255.3 |

Same assay, conditions: single point TR-FRET screening of quinoline compounds against MAGE-A11:PCF11; 15 μM

| SMILES | TR-FRET signal |
| --- | --- |
| CCCN(CCCNc1ccnc2cc(Cl)ccc12)CC(CC)CC [SJ000522752] | 14.17 |
| CCCN(CCCNc1ccnc2cc(Cl)ccc12)Cc1ccc2c(c1)OCO2 [SJ000522753] | 18.75 |
| CCCCCN(CCC)CCCNc1ccnc2cc(Cl)ccc12 [SJ000522754] | 16.29 |
| CCCN(CCCNc1ccnc2cc(Cl)ccc12)Cc1c(C)n(C)n(-c2ccccc2)c1=O [SJ000522755] | 13.64 |
| CCCN(CCCNc1ccnc2cc(Cl)ccc12)Cc1ccc(OC)cc1 [SJ000522756] | 19.14 |
| CCCN(CCCNc1ccnc2cc(Cl)ccc12)Cc1ccccc1F [SJ000522757] | 21.99 |
| CCCN(CCCNc1ccnc2cc(Cl)ccc12)Cc1cccc(F)c1 [SJ000522758] | 27.42 |
| CCCN(CCCNc1ccnc2cc(Cl)ccc12)Cc1ccc(F)cc1 [SJ000522759] | 20.79 |
| CCCN(CCCNc1ccnc2cc(Cl)ccc12)Cc1cc2ccccc2nc1Cl [SJ000522760] | 12.8 |
| CCCN(CCCNc1ccnc2cc(Cl)ccc12)Cc1ccc(Cl)c([N+](=O)[O-])c1 [SJ000522761] | 16.95 |
| CCCN(CCCNc1ccnc2cc(Cl)ccc12)Cc1c2ccccc2cc2ccccc12 [SJ000522762] | 15.49 |
| CCCN(CCCNc1ccnc2cc(Cl)ccc12)Cc1cccc(C#N)c1 [SJ000522763] | 12.91 |
| COc1ccc2nc3cc(Cl)ccc3c(NCCCNCc3cccc(C)c3)c2c1 [SJ000522956] | −7.089 |
| COc1ccc2nc3cc(Cl)ccc3c(NCCCNCc3ccc(-c4cccc(Cl)c4)o3)c2c1 [SJ000522959] | −47.42 |
| COc1ccc2nc3cc(Cl)ccc3c(NCCCNCc3c(Cl)ccc(Cl)c3Cl)c2c1 [SJ000522960] | −81.49 |
| CCCN(CCCNc1c2ccc(Cl)cc2nc2ccc(OC)cc12)Cc1ccccc1OC(F)(F)F [SJ000522961] | 22.69 |
| CCCN(CCCNc1c2ccc(Cl)cc2nc2ccc(OC)cc12)Cc1cc2ccccc2s1 [SJ000522962] | −21.58 |
| CCCN(CCCNc1c2ccc(Cl)cc2nc2ccc(OC)cc12)Cc1cc(OC)ccc1F [SJ000522965] | −81.24 |
| CCCN(CCCNc1c2ccc(Cl)cc2nc2ccc(OC)cc12)Cc1nc(C)cs1 [SJ000522966] | −82.15 |

| SMILES | TR-FRET signal |
| --- | --- |
| CCCN(CCCNc1c2ccc(Cl)cc2nc2ccc(OC)cc12)Cc1cccc(OC(F)(F)F)c1 [SJ000522967] | 14.48 |
| CCCN(CCCNc1c2ccc(Cl)cc2nc2ccc(OC)cc12)Cc1c(F)cccc1C(F)(F)F [SJ000522968] | 23.09 |
| CCCN(CCCNc1c2ccc(Cl)cc2nc2ccc(OC)cc12)Cc1nc2ccccc2s1 [SJ000522969] | −68.77 |
| CCCN(CCCNc1c2ccc(Cl)cc2nc2ccc(OC)cc12)Cc1csc2ccccc12 [SJ000522970] | −51.69 |
| CCCN(CCCNc1c2ccc(Cl)cc2nc2ccc(OC)cc12)Cc1ccc(Cl)c(C(F)(F)F)c1 [SJ000522974] | 16.36 |
| CCCN(CCCNc1c2ccc(Cl)cc2nc2ccc(OC)cc12)Cc1cncc(Br)c1 [SJ000522975] | −89.08 |
| CCCN(CCCNc1c2ccc(Cl)cc2nc2ccc(OC)cc12)Cc1cccnc1Br [SJ000522977] | 0.2567 |
| CCCN(CCCNc1c2ccc(Cl)cc2nc2ccc(OC)cc12)Cc1cc(F)cc(F)c1O [SJ000522982] | 2.045 |
| CCCN(CCCNc1c2ccc(Cl)cc2nc2ccc(OC)cc12)Cc1cc(OC(F)(F)F)ccc1OC [SJ000522984] | −36.71 |
| CCCN(CCCNc1c2ccc(Cl)cc2nc2ccc(OC)cc12)Cc1cc(C(F)(F)F)ccc1OC [SJ000522985] | −46.02 |
| CCCN(CCCNc1c2ccc(Cl)cc2nc2ccc(OC)cc12)Cc1cccc(C(F)(F)F)c1 [SJ000522986] | 16.15 |
| CCCN(CCCNc1c2ccc(Cl)cc2nc2ccc(OC)cc12)Cc1cc(Br)cs1 [SJ000522989] | −56.7 |
| CCCN(CCCNc1ccnc2cc(Cl)ccc12)Cc1c[nH]c(C)n1 [SJ000522990] | 4.828 |
| CCCN(CCCNc1ccnc2cc(Cl)ccc12)Cc1cc2ccccc2o1 [SJ000522991] | 9.295 |
| CCCN(CCCNc1ccnc2cc(Cl)ccc12)Cc1c[nH]c2ccc(F)cc12 [SJ000522992] | 29.34 |
| CCCN(CCCNc1ccnc2cc(Cl)ccc12)Cc1cc2ccccc2s1 [SJ000522993] | 5.864 |
| CCCN(CCCNc1ccnc2cc(Cl)ccc12)Cc1ccc(OC)c(F)c1 [SJ000522994] | 15.16 |
| CCCN(CCCNc1ccnc2cc(Cl)ccc12)Cc1cn(C)c2ccccc12 [SJ000522995] | −1.532 |
| CCCN(CCCNc1ccnc2cc(Cl)ccc12)Cc1cc(OC)ccc1F [SJ000522996] | 26.66 |

| SMILES | TR-FRET signal |
| --- | --- |
| CCCN(CCCNc1ccnc2cc(Cl)ccc12)Cc1nc(C)cs1 [SJ000522997] | 3.413 |
| CCCN(CCCNc1ccnc2cc(Cl)ccc12)Cc1ccc(OC(F)(F)F)cc1 [SJ000522999] | 22.74 |
| C#Cc1ccccc1CN(CCC)CCCNc1ccnc2cc(Cl)ccc12 [SJ000523000] | 12.45 |
| CCCN(CCCNc1ccnc2cc(Cl)ccc12)Cc1ccc(CC)cc1 [SJ000523001] | 30.13 |
| CCCN(CCCNc1ccnc2cc(Cl)ccc12)Cc1nccn1C [SJ000523002] | 6.351 |
| CCCN(CCCNc1ccnc2cc(Cl)ccc12)Cc1cncc(Br)c1 [SJ000523004] | 4.828 |
| CCCN(CCCNc1ccnc2cc(Cl)ccc12)Cc1scnc1C [SJ000523005] | 11.85 |
| CCCN(CCCNc1ccnc2cc(Cl)ccc12)Cc1cccnc1Br [SJ000523006] | 13.31 |
| CCCN(CCCNc1ccnc2cc(Cl)ccc12)Cc1c[nH]c2ccccc12 [SJ000523007] | 26.23 |
| CCCN(CCCNc1ccnc2cc(Cl)ccc12)Cc1ncc[nH]1 [SJ000523008] | 4.165 |
| CCCN(CCCNc1ccnc2cc(Cl)ccc12)Cc1cnn(C)c1 [SJ000523009] | 10.06 |
| CCCN(CCCNc1ccnc2cc(Cl)ccc12)Cc1[nH]cnc1C [SJ000523010] | 12.05 |
| CCCN(CCCNc1ccnc2cc(Cl)ccc12)Cc1cc(OC(F)(F)F)ccc1OC [SJ000523011] | 15.67 |
| CCCN(CCCNc1ccnc2cc(Cl)ccc12)Cc1cc(C(F)(F)F)ccc1OC [SJ000523012] | 30.4 |
| CCCN(CCCNc1ccnc2cc(Cl)ccc12)Cc1cccc(C(F)(F)F)c1 [SJ000523013] | 17.48 |
| CCCN(CCCNc1ccnc2cc(Cl)ccc12)Cc1cccn1C [SJ000523014] | 22.71 |
| CCCN(CCCNc1ccnc2cc(Cl)ccc12)CC1CCOC1 (stereo not drawn) [SJ000523016] | 9.664 |
| CCCN(CCCCCC(=O)OC)CCCNc1ccnc2cc(Cl)ccc12 [SJ000523017] | 14.3 |
| CCCN(CCCNc1c2ccc(Cl)cc2nc2ccc(OC)cc12)Cc1c(Cl)ccc(Cl)c1Cl [SJ000523021] | 40 |
